Assay results as given in patent publication US12285013B2, “Processing method for increasing seed production rate of seed fruits of Cucumis sativus L” (Yangzhou University, priority 2023, dated 2025).

Test system: seed fruits of Cucumis sativus L.
Assay: Soaking and dipping of female flowers of seed fruits of Cucumis sativus L. in the pollination stage
Type: in vivo
Settings: 50 μM solution with Tween 80 10000:1, greenhouse
Description: A processing method for increasing seed production efficiency of seed fruits of Cucumis sativus L., comprising the following steps: • (1) Preparing a plant growth regulator according to a formula proportion; • Preparing a 5-azacytidine solution with a concentration of 50 μM, adding an emulsifier Tween 80 at the same time, and mixing the 5-azacytidine solution and the emulsifier Tween 80 at a proportion of 10000:1 to obtain the plant growth regulator; • (2) Selecting seed fruits of Cucumis sativus L. growing naturally in a greenhouse and reaching a pollination stage, and dipping female flowers thereof with the plant growth regulator prepared in step (1) before pollination; • (3) Picking male flowers for pollination after the female flowers are completely dry; • (4) Dipping the pollinated female flowers again; • (5) Conducting field routine cultivation management.
In step (2), the preserved solution of the prepared plant growth regulator is poured into any container, and the female flowers of the seed fruits of Cucumis sativus L. reaching a pollination stage are completely immersed in the plant growth regulator in the container for at least 5 seconds.
In step (2), in the greenhouse, the temperature is stabilized at 20° C.-35° C., the humidity is 70%-90%, the pH value of the cultivation soil is 6.5, a selected species of Cucumis sativus L. is a species of North China Cucumis sativus L. used for seed production, a row spacing for seed fruit cultivation is fixed at 75 cm, a planting distance is 25 cm, and the number of plants planted in each row is 80.
Step (3) is specifically as follows: picking male flowers blooming on the same plant, removing all petals, poking stamens of the male flowers into the female flowers after the female flowers soaked and dipped by the plant growth regulator are completely dry, and repeating the process for multiple times to increase pollination success rate.
Step (4) is specifically as follows: repeating the soaking and dipping treatment described in step (2) for successfully pollinated female flowers of Cucumis sativus L. on the third day after pollination.
In a third aspect of the present invention, a processing method for increasing seed production efficiency of seed fruits of Cucumis sativus L. is provided, which mainly comprises the following steps: • (1) Preparing a reagent. Specifically: preparing a 5-azacytidine solution with a concentration of 50 μM, adding an emulsifier Tween 80 at the same time according to a proportion of 10000:1, and preserving the reagent in a refrigerator at 4° C. • (2) Selecting seed fruits of Cucumis sativus L. growing naturally in a greenhouse and reaching a pollination stage, and dipping female flowers thereof with the reagent prepared in step (1) before pollination. […]

[1] = female flowers dipped before pollination and on the third day after

Nc1ncn([C@@H]2O[C@H](CO)[C@@H](O)[C@H]2O)c(=O)n1 [5-azacytidine]
fruit length of the seed fruits [1]: significantly reduced
number of seeds of the seed fruits [1]: without affecting
seed production efficiency of the seed fruits [1]: increased
weight of Cucumis sativus L. (fruit weight) (female flowers treated in the pollination stage): significantly reduce
